ChEMBL document CHEMBL1201862, “PubChem BioAssay data set” (2004)
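Interpolation was linear, between the two tested concentrations surrounding the appropriate level; five concentrations were tested over 48 hours in 96-well plates. GI50 is the concentration that inhibits growth by half.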 Calls of active or inactive are those of the source. No stated cut-off is given here; in the data, active = GI50 up to about 1.1 µM and inactive = higher.

What was measured:
Assay in all cases: NCI anticancer screen, dose series, 48 h
MDA-MB-231 = tested on: MDA-MB-231
HCT-15 = tested on: HCT-15
TK-10 = tested on: TK-10
BT-549 = tested on: BT-549
HCC 2998 = tested on: HCC 2998
SW-620 = tested on: SW-620
EKVX = tested on: EKVX
SK-MEL-2 = tested on: SK-MEL-2
OVCAR-8 = tested on: OVCAR-8
NCI-H23 = tested on: NCI-H23
IGROV-1 = tested on: IGROV-1
HOP-62 = tested on: HOP-62
COLO 205 = tested on: COLO 205
K562 = tested on: K562
SR = tested on: SR
DU-145 = tested on: DU-145
CAKI-1 = tested on: CAKI-1
MOLT-4 = tested on: MOLT-4
SK-MEL-28 = tested on: SK-MEL-28
MDA-N = tested on: MDA-N

CNC(=O)c1cc2nc3ccccc3c(=O)n2c2ccccc12
GI50 (MDA-MB-231): > 10 µM (inactive) | GI50 (HCT-15): > 10 µM | GI50 (TK-10): > 10 µM (inactive) | GI50 (BT-549): > 10 µM (inactive) | GI50 (HCC 2998): > 10 µM (inactive) | GI50 (SW-620): > 10 µM (inactive) | GI50 (EKVX): > 10 µM (inactive) | GI50 (SK-MEL-2): > 10 µM (inactive) | GI50 (OVCAR-8): > 10 µM (inactive) | GI50 (NCI-H23): > 10 µM (inactive) | GI50 (IGROV-1): > 10 µM (inactive) | GI50 (HOP-62): > 10 µM (inactive) | GI50 (COLO 205): > 10 µM (inactive) | GI50 (K562): > 10 µM (inactive) | GI50 (SR): > 10 µM (inactive) | GI50 (DU-145): > 10 µM (inactive) | GI50 (CAKI-1): > 10 µM (inactive) | GI50 (MOLT-4): > 10 µM (inactive) | GI50 (SK-MEL-28): > 10 µM (inactive)

CCOC(=O)c1cn2c(n1)sc1cc(OC)ccc12
GI50 (MDA-MB-231): 37.3 µM (inactive) | GI50 (HCT-15): 3.89 µM | GI50 (TK-10): > 100 µM (inactive) | GI50 (BT-549): > 69.7 µM (inactive) | GI50 (HCC 2998): 31 µM (inactive) | GI50 (MDA-N): 2.6 µM (inactive) | GI50 (SW-620): 3.08 µM (inactive) | GI50 (EKVX): > 53.3 µM (inactive) | GI50 (SK-MEL-2): 14.9 µM (inactive) | GI50 (OVCAR-8): 6.21 µM (inactive) | GI50 (NCI-H23): > 47.5 µM (inactive) | GI50 (IGROV-1): 26.7 µM (inactive) | GI50 (HOP-62): 13 µM (inactive) | GI50 (COLO 205): 3.4 µM (inactive) | GI50 (K562): 3.75 µM (inactive) | GI50 (DU-145): 4.07 µM (inactive) | GI50 (CAKI-1): 13.5 µM (inactive) | GI50 (MOLT-4): 4.61 µM (inactive) | GI50 (SK-MEL-28): > 100 µM (inactive)

COc1cc(/C=C2\C[C@H]3[C@@H]4CC=C5C[C@@H](N6CCCC6)CC[C@]5(C)[C@H]4CC[C@]3(C)[C@H]2OC(C)=O)cc(OC)c1OC
GI50 (MDA-MB-231): 16.3 µM (inactive) | GI50 (HCT-15): 12.6 µM | GI50 (TK-10): 20.6 µM (inactive) | GI50 (BT-549): 14.9 µM (inactive) | GI50 (HCC 2998): 2.38 µM (inactive) | GI50 (MDA-N): 10.9 µM (inactive) | GI50 (SW-620): 14.8 µM (inactive) | GI50 (EKVX): 14.3 µM (inactive) | GI50 (SK-MEL-2): 17.7 µM (inactive) | GI50 (OVCAR-8): 15 µM (inactive) | GI50 (NCI-H23): 15.2 µM (inactive) | GI50 (IGROV-1): 16.3 µM (inactive) | GI50 (HOP-62): 15.6 µM (inactive) | GI50 (COLO 205): 12.9 µM (inactive) | GI50 (DU-145): 17.3 µM (inactive) | GI50 (CAKI-1): 17 µM (inactive) | GI50 (MOLT-4): 6.38 µM (inactive) | GI50 (SK-MEL-28): 19 µM (inactive)

COc1ccc2[nH]c3c(c2c1)CC(=S)N1CCCC(CC3=O)C1 (configuration not stated)
GI50 (MDA-MB-231): 50.2 µM (inactive) | GI50 (HCT-15): 57.7 µM | GI50 (TK-10): > 100 µM (inactive) | GI50 (BT-549): > 100 µM (inactive) | GI50 (HCC 2998): 35.6 µM (inactive) | GI50 (MDA-N): 45.2 µM (inactive) | GI50 (SW-620): 52.7 µM (inactive) | GI50 (EKVX): 37.8 µM (inactive) | GI50 (SK-MEL-2): 29.3 µM (inactive) | GI50 (OVCAR-8): 93.3 µM (inactive) | GI50 (NCI-H23): 47.8 µM (inactive) | GI50 (IGROV-1): 64.4 µM (inactive) | GI50 (HOP-62): 87.3 µM (inactive) | GI50 (COLO 205): 31.3 µM (inactive) | GI50 (DU-145): 62.4 µM (inactive) | GI50 (CAKI-1): 91 µM (inactive) | GI50 (SK-MEL-28): 86.9 µM (inactive)

CCCCC(=O)Nc1ccc2c(C)cc(-c3ccc(-c4cc(-c5ccc(C)cc5)cc(-c5ccc(-c6cc(C)c7ccc(NC(=O)CCCC)nc7n6)cc5)n4)cc3)nc2n1
GI50 (MDA-MB-231): > 100 µM (inactive) | GI50 (HCT-15): > 100 µM | GI50 (TK-10): > 100 µM (inactive) | GI50 (BT-549): > 100 µM (inactive) | GI50 (HCC 2998): > 100 µM (inactive) | GI50 (MDA-N): > 100 µM (inactive) | GI50 (EKVX): > 100 µM (inactive) | GI50 (SK-MEL-2): > 100 µM (inactive) | GI50 (NCI-H23): > 100 µM (inactive) | GI50 (HOP-62): > 100 µM (inactive) | GI50 (COLO 205): > 100 µM (inactive) | GI50 (K562): > 100 µM (inactive) | GI50 (DU-145): > 100 µM (inactive) | GI50 (CAKI-1): > 100 µM (inactive) | GI50 (MOLT-4): > 100 µM (inactive) | GI50 (SK-MEL-28): > 100 µM (inactive)

CC12CCC(CC1(Cl)Cl)C2 (configuration not stated)
GI50 (HCT-15): > 100 µM | GI50 (TK-10): > 100 µM (inactive) | GI50 (BT-549): > 100 µM (inactive) | GI50 (SW-620): > 100 µM (inactive) | GI50 (EKVX): > 100 µM (inactive) | GI50 (SK-MEL-2): > 100 µM (inactive) | GI50 (OVCAR-8): > 100 µM (inactive) | GI50 (NCI-H23): > 100 µM (inactive) | GI50 (IGROV-1): > 100 µM (inactive) | GI50 (HOP-62): > 100 µM (inactive) | GI50 (COLO 205): > 100 µM (inactive) | GI50 (K562): > 100 µM (inactive) | GI50 (SR): > 100 µM (inactive) | GI50 (CAKI-1): > 100 µM (inactive) | GI50 (MOLT-4): > 100 µM (inactive) | GI50 (SK-MEL-28): > 100 µM (inactive)

C[C@@H](CC(O)C(O)C(C)(C)O)C1CCC23CC12CCC1[C@@]2(C)CCC(=O)C(C)(C)C2CC(OC2OC(CO)C(O)C(O)C2O)[C@]13C (some centres not stated)
GI50 (MDA-MB-231): > 10 µM (inactive) | GI50 (HCT-15): > 10 µM | GI50 (TK-10): > 10 µM (inactive) | GI50 (BT-549): > 10 µM (inactive) | GI50 (HCC 2998): > 10 µM (inactive) | GI50 (MDA-N): > 10 µM (inactive) | GI50 (SW-620): > 10 µM (inactive) | GI50 (EKVX): > 10 µM (inactive) | GI50 (SK-MEL-2): > 10 µM (inactive) | GI50 (OVCAR-8): > 10 µM (inactive) | GI50 (NCI-H23): > 10 µM (inactive) | GI50 (IGROV-1): > 10 µM (inactive) | GI50 (HOP-62): > 10 µM (inactive) | GI50 (COLO 205): > 10 µM (inactive) | GI50 (K562): > 10 µM (inactive) | GI50 (DU-145): > 10 µM (inactive) | GI50 (CAKI-1): > 10 µM (inactive) | GI50 (MOLT-4): > 10 µM (inactive) | GI50 (SK-MEL-28): > 10 µM (inactive)

Cc1ccc(Nc2nc(O)c3[nH]cnc3n2)cc1CO
GI50 (MDA-MB-231): 12.1 µM (inactive) | GI50 (HCT-15): 15.6 µM | GI50 (TK-10): 18 µM (inactive) | GI50 (BT-549): 14.9 µM (inactive) | GI50 (HCC 2998): 15.5 µM (inactive) | GI50 (SW-620): 17.5 µM (inactive) | GI50 (EKVX): 14.8 µM (inactive) | GI50 (SK-MEL-2): 16.6 µM (inactive) | GI50 (OVCAR-8): 16.6 µM (inactive) | GI50 (NCI-H23): 17.7 µM (inactive) | GI50 (IGROV-1): 14.9 µM (inactive) | GI50 (COLO 205): 14.6 µM (inactive) | GI50 (K562): 15.9 µM (inactive) | GI50 (SR): 14 µM (inactive) | GI50 (DU-145): 19.5 µM (inactive) | GI50 (CAKI-1): 15.2 µM (inactive) | GI50 (MOLT-4): 15.5 µM (inactive) | GI50 (SK-MEL-28): 17.8 µM (inactive)
